Laboratory results from PubChem BioAssay (NCI).
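48-hour exposure; five concentrations; linearly interpolated endpoints. Definition used: TGI = concentration required for complete inhibition of growth.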

What was measured:
Test in all cases: NCI-60 cell line screen, 48 h
[1] = tested on: 786-0 renal
[2] = tested on: A498 renal
[3] = tested on: A549 NSCLC
[4] = tested on: ACHN renal
[5] = tested on: BT-549 breast
[6] = tested on: CAKI-1 renal
[7] = tested on: CCRF-CEM leukemia
[8] = tested on: COLO 205 colon
[9] = tested on: DU-145 prostate
[10] = tested on: EKVX NSCLC
[11] = tested on: HCC-2998 colon
[12] = tested on: HCT-116 colon
[13] = tested on: HCT-15 colon
[14] = tested on: HOP-62 NSCLC
[15] = tested on: HOP-92 NSCLC
[16] = tested on: HT29 colon
[17] = tested on: IGROV1 ovarian
[18] = tested on: K-562 leukemia
[19] = tested on: KM12 colon
[20] = tested on: LOX IMVI melanoma
[21] = tested on: M14 melanoma
[22] = tested on: MALME-3M melanoma
[23] = tested on: MCF7 breast
[24] = tested on: MDA-MB-231 breast
[25] = tested on: MDA-MB-435
[26] = tested on: MDA-N
[27] = tested on: MOLT-4 leukemia
[28] = tested on: NCI-H226 lung
[29] = tested on: NCI-H23 lung
[30] = tested on: NCI/ADR-RES ovarian
[31] = tested on: OVCAR-3 ovarian
[32] = tested on: OVCAR-5 ovarian
[33] = tested on: OVCAR-8 ovarian
[34] = tested on: PC-3 prostate
[35] = tested on: RPMI-8226 leukemia
[36] = tested on: RXF 393 renal
[37] = tested on: SF-268 CNS
[38] = tested on: SF-295 CNS
[39] = tested on: SF-539 CNS
[40] = tested on: SK-MEL-2 melanoma
[41] = tested on: SK-MEL-28 melanoma
[42] = tested on: SK-MEL-5 melanoma
[43] = tested on: SK-OV-3 ovarian
[44] = tested on: SN12C renal
[45] = tested on: SNB-75 CNS
[46] = tested on: SW-620 colon
[47] = tested on: T-47D breast
[48] = tested on: TK-10 renal
[49] = tested on: U251 CNS
[50] = tested on: UACC-257 melanoma
[51] = tested on: UACC-62 melanoma
[52] = tested on: HS 578T breast
[53] = tested on: NCI-H460 lung
[54] = tested on: OVCAR-4 ovarian
[55] = tested on: SNB-19 CNS
[56] = tested on: SR leukemia
[57] = tested on: UO-31 renal

`O=C1C2=Cc3ccccc3OC2(O)Oc2cc(O)ccc21` (stereo not drawn) showed a TGI [1] greater than 100 µM, a TGI [2] greater than 100 µM and a TGI [3] greater than 100 µM. It also gave a TGI [4] greater than 100 µM, a TGI [5] greater than 100 µM and a TGI [6] greater than 100 µM. The TGI [7] was 88.7 µM, the TGI [8] was greater than 100 µM and the TGI [9] was greater than 100 µM. For the same molecule, the TGI [10] was greater than 100 µM, the TGI [11] was greater than 100 µM and the TGI [12] was greater than 100 µM. The TGI [13] was greater than 100 µM, the TGI [14] was greater than 100 µM and the TGI [15] was greater than 100 µM. The TGI [16] was greater than 100 µM, the TGI [17] was greater than 100 µM and the TGI [18] was greater than 100 µM. It also gave a TGI [19] greater than 100 µM, a TGI [20] greater than 100 µM and a TGI [21] greater than 100 µM. For the same molecule, the TGI [22] was greater than 100 µM, the TGI [23] was greater than 100 µM and the TGI [24] was greater than 100 µM. The TGI [25] was greater than 100 µM, the TGI [26] was greater than 100 µM and the TGI [27] was greater than 100 µM. The TGI [28] was greater than 100 µM, the TGI [29] was greater than 100 µM and the TGI [30] was greater than 100 µM. For the same molecule, the TGI [31] was greater than 100 µM, the TGI [32] was greater than 100 µM and the TGI [33] was greater than 100 µM. The TGI [34] was greater than 100 µM, the TGI [35] was greater than 100 µM and the TGI [36] was greater than 100 µM. For the same molecule, the TGI [37] was greater than 100 µM, the TGI [38] was greater than 100 µM and the TGI [39] was greater than 100 µM. The TGI [40] was greater than 100 µM, the TGI [41] was greater than 100 µM and the TGI [42] was greater than 100 µM. The TGI [43] was greater than 100 µM, the TGI [44] was greater than 100 µM and the TGI [45] was greater than 100 µM. It also gave a TGI [46] greater than 100 µM, a TGI [47] greater than 100 µM and a TGI [48] greater than 100 µM. It also gave a TGI [49] greater than 100 µM, a TGI [50] greater than 100 µM and a TGI [51] greater than 100 µM.

In the case of `Nc1ncnc2c1ncn2C1C=CC(CP(=O)(O)O)C1` (stereo not drawn), the TGI [1] is reported as greater than 100 µM, the TGI [3] is reported as greater than 100 µM and the TGI [4] is reported as greater than 100 µM. It also gave a TGI [6] greater than 100 µM, a TGI [8] greater than 100 µM and a TGI [9] greater than 100 µM. For the same molecule, the TGI [10] was greater than 100 µM, the TGI [11] was greater than 100 µM and the TGI [12] was greater than 100 µM. For the same molecule, the TGI [13] was greater than 100 µM, the TGI [14] was greater than 100 µM and the TGI [52] was greater than 100 µM. It also gave a TGI [16] greater than 100 µM, a TGI [17] greater than 100 µM and a TGI [19] greater than 100 µM. The TGI [20] was greater than 100 µM, the TGI [21] was greater than 100 µM and the TGI [22] was greater than 100 µM. It also gave a TGI [23] greater than 100 µM, a TGI [24] greater than 100 µM and a TGI [25] greater than 100 µM. For the same molecule, the TGI [26] was greater than 100 µM, the TGI [27] was greater than 100 µM and the TGI [28] was greater than 100 µM. For the same molecule, the TGI [29] was greater than 100 µM, the TGI [53] was greater than 100 µM and the TGI [30] was greater than 100 µM. It also gave a TGI [31] greater than 100 µM, a TGI [54] greater than 100 µM and a TGI [32] greater than 100 µM. It also gave a TGI [33] greater than 100 µM, a TGI [34] greater than 100 µM and a TGI [35] greater than 100 µM. For the same molecule, the TGI [36] was greater than 100 µM, the TGI [37] was greater than 100 µM and the TGI [38] was greater than 100 µM. For the same molecule, the TGI [39] was greater than 100 µM, the TGI [40] was greater than 100 µM and the TGI [41] was greater than 100 µM. For the same molecule, the TGI [42] was greater than 100 µM, the TGI [43] was greater than 100 µM and the TGI [44] was greater than 100 µM. The TGI [55] was greater than 100 µM, the TGI [45] was greater than 100 µM and the TGI [56] was greater than 100 µM. For the same molecule, the TGI [46] was greater than 100 µM, the TGI [47] was greater than 100 µM and the TGI [48] was greater than 100 µM. The TGI [49] was greater than 100 µM, the TGI [50] was greater than 100 µM and the TGI [51] was greater than 100 µM. It also gave a TGI [57] greater than 100 µM.
